The record followed here is ChEMBL document CHEMBL3774369, “Tetrahydroisoquinoline Phenols: Selective Estrogen Receptor Downregulator Antagonists with Oral Bioavailability in Rat” (ACS Med Chem Lett, 2016).

Molecules are shown by their SMILES.

Data set [1] in a line: physchem. The note with it: buffer, pH 7.4.
Data set [2] in a line: Percentage unbound in human plasma by equilibrium dialysis method. In kind it is ADME, cell-free.
Data set [3] can be described thus: Intrinsic clearance in human hepatocytes assessed per 10^6 cells. Format: ADME, cell-based, Hepatocyte. Conditions: read-out: CLH.
The nature of data set [4]: Volume of distribution at steady state in rat at 0.5 mg/kg, iv or 1 mg/kg, po. In kind it is ADME, organism-based. Conditions: in vivo, read-out: Vdss.
The nature of data set [5]: Percentage unbound in Han Wistar rat plasma by equilibrium dialysis method. In kind it is ADME, cell-free.
Data set [6] in a line: Clearance in rat at 0.5 mg/kg, iv or 1 mg/kg, po. In kind it is ADME, organism-based. Conditions: in vivo.
The nature of data set [7]: Half life in rat at 0.5 mg/kg, iv. In kind it is ADME, organism-based. The note with it: in vivo.
Data set [8] can be described thus: Intrinsic clearance in Han Wistar rat hepatocytes assessed per 10^6 cells. In kind it is ADME, cell-based, Hepatocyte. The note with it: read-out: CLH.
The nature of data set [9]: Half life in rat at 1 mg/kg, po. Format: ADME, organism-based. Conditions: in vivo.
Data set [10] in a line: in vivo. The note with it: rat, po, 1 mg/kg.

As to `C[C@@H]1Cc2cc(O)ccc2[C@@H](c2ccc(/C=C/C(=O)O)cc2)N1c1ccc(OC(F)(F)F)cc1`, the logD in data set [1] worked out at 4.2. Besides, the fraction unbound in [2] came to 0.009; in data set [5], 0.0002. Moreover, the hepatocyte CLint in [3] and in data set [8] was 9 µL/min/1e6 cells in each case. Also, the Vd in data set [4] came out at 1.1 L/kg. The molecule also returned a clearance in [6] of 4.2 mL/min/kg. The half-life in data set [7] is 4.2 h; in data set [9], 6.7 h.
In turn, `CC(C)CN1[C@H](C)Cc2cc(O)ccc2[C@@]1(C)c1ccc(/C=C/C(=O)O)cc1` registered a bioavailability in data set [10] of 33%. Also, in data set [1], the logD is 2.7. Moreover, the fraction unbound in [2] came out at 0.015; in [5], 0.013. Further, the figures for the hepatocyte CLint in data set [3] and in data set [8] were 18 µL/min/1e6 cells and 15 µL/min/1e6 cells, respectively. For the same molecule, in [4], the Vd was 1.6 L/kg. The molecule further came in with a clearance in [6] of 19 mL/min/kg. Also, the results for the half-life in [7] and in [9] were 2.4 h and 5.6 h, respectively.
In data set [1], `C[C@H](CF)CN1[C@H](c2c(F)cc(/C=C/C(=O)O)cc2F)c2ccc(O)cc2C[C@H]1C` gave a logD of 2.5. In addition, the fraction unbound in data set [2] is 0.009; in [5], 0.01. The hepatocyte CLint in data set [3] stood at 170 µL/min/1e6 cells; in data set [8] it was 94 µL/min/1e6 cells.
`C[C@@H]1Cc2cc(O)ccc2[C@@H](c2c(F)cc(/C=C/C(=O)O)cc2F)N1CC(C)(C)F`: in [1], the logD was 2.1. Further, the fraction unbound worked out at 0.023 in data set [2] and 0.011 in data set [5]. For the same molecule, the hepatocyte CLint in data set [3] came out at 78 µL/min/1e6 cells; in [8], 74 µL/min/1e6 cells.
Taken in the same sequence, the figures for `O=C(O)/C=C/c1ccc(C2c3ccc(O)cc3CCN2Cc2ccccc2)cc1` (stereo not given) were 2.2, 0.007, 0.013, 150 µL/min/1e6 cells and 40 µL/min/1e6 cells.
`O=C(O)/C=C/c1ccc(C2c3ccc(O)cc3CCN2c2ccc(OC(F)(F)F)cc2)cc1` (stereo not given): in [1], the logD was found to be 3.7. Also, the fraction unbound in [2] and in data set [5] was 0.0006 in each case. Besides, the hepatocyte CLint is 11 µL/min/1e6 cells in [3] and 20 µL/min/1e6 cells in data set [8].
The molecule `CC(C)(F)CN1[C@H](c2ccc(/C=C/C(=O)O)cc2)c2ccc(O)cc2CC1(C)C` had a logD in [1] of 2.3. The fraction unbound amounted to 0.007 in [2] and 0.025 in data set [5]. The hepatocyte CLint in data set [3] was 19 µL/min/1e6 cells; in data set [8], 59 µL/min/1e6 cells.
On the same counts, the results for `COC[C@H](C)CN1[C@H](c2c(F)cc(/C=C/C(=O)O)cc2F)c2ccc(O)cc2C[C@H]1C` are 1.6, 0.038, 0.053, 45 µL/min/1e6 cells and 110 µL/min/1e6 cells.
Taken in the same sequence, the figures for `CC(C)CN1[C@H](c2ccc(/C=C/C(=O)O)cc2)c2ccccc2C[C@H]1C` were 2.5, 0.021, 0.016, 45 µL/min/1e6 cells and 24 µL/min/1e6 cells.
Molecule `C[C@H](CF)CN1[C@H](c2ccc(/C=C/C(=O)O)cc2)c2ccc(O)cc2CC1(C)C` had a bioavailability in data set [10] above 70%. Further, the logD in [1] came to 1.8. Besides, the free fraction (fraction unbound) in data set [2] was found to be 0.01; in data set [5], 0.028. Moreover, the hepatocyte CLint in data set [3] was 14 µL/min/1e6 cells; in data set [8] it was 24 µL/min/1e6 cells.
Consider `Cc1cc2c(cc1O)CCN(CC(C)C)[C@@H]2c1ccc(/C=C/C(=O)O)cc1`, for which, in data set [1], the logD was determined as 1.8. For the same molecule, the values for the fraction unbound in [2] and in [5] were 0.091 and 0.088, respectively. Besides, the hepatocyte CLint in data set [3] and in data set [8] was 17 µL/min/1e6 cells throughout.
For `CC(C)CN1[C@H](c2c(F)cc(/C=C/C(=O)O)cc2F)c2ccc(O)cc2CC1(C)C`, in data set [10], the bioavailability is above 70%. Also, the logD in [1] was 2.7. In addition, the figures for the fraction unbound in data set [2] and in data set [5] were 0.005 and 0.004, respectively. Further, the results for the hepatocyte CLint in [3] and in [8] were 33 µL/min/1e6 cells and 34 µL/min/1e6 cells, respectively.
As to `Cc1c(O)ccc2c1CCN(CC(C)C)[C@@H]2c1ccc(/C=C/C(=O)O)cc1`, the logD in data set [1] turned out to be 1.6. Besides, the fraction unbound in data set [2] was 0.024; in data set [5], 0.063. For the same molecule, the values for the hepatocyte CLint in data set [3] and in data set [8] were 9 µL/min/1e6 cells and 32 µL/min/1e6 cells, respectively.
In data set [10], `COC[C@H](C)CN1[C@H](c2ccc(/C=C/C(=O)O)cc2)c2ccc(O)cc2C[C@H]1C` had a bioavailability of 3%. In addition, the logD in data set [1] was found to be 1. The results for the fraction unbound in data set [2] and in data set [5] were 0.16 and 0.12, respectively. Also, the results for the hepatocyte CLint in data set [3] and in data set [8] were 7 µL/min/1e6 cells and 27 µL/min/1e6 cells, respectively. The Vd in data set [4] came out at 0.6 L/kg. The clearance in data set [6] worked out at 63 mL/min/kg. In addition, the half-life in [7] is 0.2 h; in [9], 1.9 h.
Molecule `CC(C)CN1CCc2cc(O)ccc2[C@@H]1c1ccc(/C=C/C(=O)O)cc1` returned a logD in [1] of 1.4. The fraction unbound stood at 0.019 in data set [2] and 0.087 in [5]. Further, the values for the hepatocyte CLint in data set [3] and in data set [8] were 4 µL/min/1e6 cells and 49 µL/min/1e6 cells, respectively.
Taken in the same sequence, the figures for `CC(C)CN1CCc2cc(O)ccc2[C@@]1(C)c1ccc(/C=C/C(=O)O)cc1` were 2.2, 0.009, 0.019, 40 µL/min/1e6 cells and 33 µL/min/1e6 cells.
Regarding `C[C@H](CF)CN1[C@H](c2ccc(/C=C/C(=O)O)cc2)c2ccc(O)cc2C[C@H]1C`, the fraction unbound in data set [2] came to 0.026; in data set [5] it was 0.024. Further, the figures for the hepatocyte CLint in data set [3] and in [8] were 100 µL/min/1e6 cells and 47 µL/min/1e6 cells, respectively.
In data set [1], `COC[C@H](C)CN1[C@H](c2c(F)cc(/C=C/C(=O)O)cc2F)c2ccc(O)cc2CC1(C)C` had a logD of 2. For the same molecule, the fraction unbound in data set [2] was found to be 0.01; in data set [5], 0.042. The hepatocyte CLint in data set [3] is 88 µL/min/1e6 cells; in [8], 180 µL/min/1e6 cells.
Consider `CC(C)CN1CCc2cc(O)ccc2[C@H]1c1ccc(/C=C/C(=O)O)cc1`, for which the bioavailability in data set [10] turned out to be 26%. This molecule also showed a logD in data set [1] of 1.3. The results for the fraction unbound in [2] and in [5] were 0.063 and 0.037, respectively. Further, the hepatocyte CLint in data set [3] and in data set [8] was 38 µL/min/1e6 cells each time. The Vd in [4] turned out to be 0.5 L/kg. The molecule also had a clearance in data set [6] of 44 mL/min/kg. For the same molecule, the figures for the half-life in data set [7] and in data set [9] were 0.2 h and 3 h, respectively.
`C[C@H](CF)CN1[C@H](c2c(F)cc(/C=C/C(=O)O)cc2F)c2ccc(O)cc2CC1(C)C` returned a logD in [1] of 3.1. For the same molecule, the fraction unbound in data set [2] stood at 0.002; in data set [5], 0.005. For the same molecule, the figures for the hepatocyte CLint in data set [3] and in [8] were 39 µL/min/1e6 cells and 68 µL/min/1e6 cells, respectively.
Taken in the same sequence, the figures for `COc1ccc2c(c1)C[C@@H](C)N(CC(C)C)[C@@H]2c1ccc(/C=C/C(=O)O)cc1` were 2.3, 0.02, 0.034, 56 µL/min/1e6 cells and 43 µL/min/1e6 cells.
Regarding `O=C(O)/C=C/c1ccc(C2c3ccc(O)cc3CCN2c2ccccc2)cc1` (stereo not given), the logD in data set [1] is 2.4. The unbound share (fraction unbound) in [2] and in [5] was 0.012 each time. Besides, the hepatocyte CLint in data set [3] was 67 µL/min/1e6 cells; in [8], 87 µL/min/1e6 cells.
